Assay results reported in patent publication US10168342B2, “Lipid probes and uses thereof” (THE SCRIPPS RESEARCH INSTITUTE, priority 2015, dated 2019).
Where two headings read alike, the source gives them in different places.

Columns and labels:
[1] = target: T1, AEA-DA lipid probe targets in Neuro2a cells (Mus musculus, UniProt Q922Q8)
T1 sequence (Q922Q8 1-307): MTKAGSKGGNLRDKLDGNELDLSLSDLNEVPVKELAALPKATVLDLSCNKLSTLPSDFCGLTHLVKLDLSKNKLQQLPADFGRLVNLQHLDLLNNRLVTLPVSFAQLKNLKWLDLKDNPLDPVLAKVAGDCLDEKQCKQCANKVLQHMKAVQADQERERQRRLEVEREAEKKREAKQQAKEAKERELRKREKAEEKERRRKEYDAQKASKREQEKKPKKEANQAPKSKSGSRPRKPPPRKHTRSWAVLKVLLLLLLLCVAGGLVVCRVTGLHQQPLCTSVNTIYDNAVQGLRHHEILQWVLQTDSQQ

[2] = target: T2, AEA-DA lipid probe targets in Neuro2a cells (Mus musculus, UniProt Q9CQ85); details: for SILAC ratio, TIMM22 (Q9CQ85): Neuro2a cells, AEA-DA probe
T2 sequence (Q9CQ85 1-194): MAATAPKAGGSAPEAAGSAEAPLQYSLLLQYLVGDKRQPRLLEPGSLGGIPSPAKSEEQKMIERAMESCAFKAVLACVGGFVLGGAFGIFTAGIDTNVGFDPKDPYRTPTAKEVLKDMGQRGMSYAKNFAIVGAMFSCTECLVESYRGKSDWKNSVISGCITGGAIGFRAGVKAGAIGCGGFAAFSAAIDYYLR

[3] = target: T3, AEA-DA lipid probe targets in Neuro2a cells (Mus musculus, UniProt Q3UEB3)
T3 sequence (Q3UEB3 1-564): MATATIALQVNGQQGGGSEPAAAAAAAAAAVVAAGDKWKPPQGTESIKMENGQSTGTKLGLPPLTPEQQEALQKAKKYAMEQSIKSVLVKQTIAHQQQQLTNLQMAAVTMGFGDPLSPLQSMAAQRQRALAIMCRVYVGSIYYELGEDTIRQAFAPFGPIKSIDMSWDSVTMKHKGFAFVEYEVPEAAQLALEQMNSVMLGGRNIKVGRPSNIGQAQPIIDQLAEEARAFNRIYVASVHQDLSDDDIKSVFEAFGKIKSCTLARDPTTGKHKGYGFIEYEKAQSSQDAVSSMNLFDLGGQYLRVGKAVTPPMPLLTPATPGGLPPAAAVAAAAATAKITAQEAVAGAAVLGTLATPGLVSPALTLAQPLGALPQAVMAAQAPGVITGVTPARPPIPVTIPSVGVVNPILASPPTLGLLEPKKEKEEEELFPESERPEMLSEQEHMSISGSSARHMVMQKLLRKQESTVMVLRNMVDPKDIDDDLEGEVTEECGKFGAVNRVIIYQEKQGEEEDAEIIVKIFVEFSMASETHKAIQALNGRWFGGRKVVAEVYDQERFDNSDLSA

[4] = target: AEA-DA lipid probe targets in Neuro2a cells (Mus musculus, UniProt Q60715)
AEA-DA lipid probe targets in Neuro2a cells (Mus musculus, UniProt Q60715), sequence (Q60715 18-534): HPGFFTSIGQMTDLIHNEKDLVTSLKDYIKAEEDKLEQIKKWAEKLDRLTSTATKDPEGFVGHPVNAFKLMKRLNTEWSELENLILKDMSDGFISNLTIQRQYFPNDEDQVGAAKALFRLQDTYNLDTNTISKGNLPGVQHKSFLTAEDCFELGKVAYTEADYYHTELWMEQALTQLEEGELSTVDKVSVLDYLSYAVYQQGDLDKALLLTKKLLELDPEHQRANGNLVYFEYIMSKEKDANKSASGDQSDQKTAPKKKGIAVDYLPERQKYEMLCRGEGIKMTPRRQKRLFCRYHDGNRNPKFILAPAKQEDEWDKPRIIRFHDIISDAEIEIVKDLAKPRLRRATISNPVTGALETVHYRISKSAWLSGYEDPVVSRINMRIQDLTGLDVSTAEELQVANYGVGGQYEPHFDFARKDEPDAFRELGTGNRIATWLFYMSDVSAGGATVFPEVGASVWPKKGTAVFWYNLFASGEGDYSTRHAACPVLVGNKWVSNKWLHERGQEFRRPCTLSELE

[5] = target: T4, AEA-DA lipid probe targets in Neuro2a cells (Mus musculus, UniProt O08579); details: for SILAC ratio, EMD (O08579): Neuro2a cells, AEA-DA probe
T4 sequence (O08579 1-259): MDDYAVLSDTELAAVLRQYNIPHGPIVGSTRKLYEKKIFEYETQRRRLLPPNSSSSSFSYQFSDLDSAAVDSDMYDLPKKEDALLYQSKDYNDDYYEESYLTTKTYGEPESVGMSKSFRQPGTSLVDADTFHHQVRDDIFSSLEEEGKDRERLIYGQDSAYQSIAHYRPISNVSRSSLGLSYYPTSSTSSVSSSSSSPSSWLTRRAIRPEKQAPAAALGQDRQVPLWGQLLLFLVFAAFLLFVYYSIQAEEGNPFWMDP

[6] = target: T5, AEA-DA lipid probe targets in Neuro2a cells (Mus musculus, UniProt Q9CQM2)
T5 sequence (Q9CQM2 1-212): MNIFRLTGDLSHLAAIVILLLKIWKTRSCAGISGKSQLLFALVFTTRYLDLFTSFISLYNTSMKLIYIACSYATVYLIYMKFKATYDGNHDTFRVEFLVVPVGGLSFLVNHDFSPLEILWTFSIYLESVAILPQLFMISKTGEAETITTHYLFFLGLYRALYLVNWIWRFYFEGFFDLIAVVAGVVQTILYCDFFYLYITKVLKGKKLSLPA

[7] = target: AEA-DA lipid probe targets in Neuro2a cells (Mus musculus, UniProt Q8VDN2)
[8] = target: T6, AEA-DA lipid probe targets in Neuro2a cells (Mus musculus, UniProt Q8VCB1); details: for SILAC ratio, TMEM48 (Q8VCB1): Neuro2a cells, AEA-DA probe
T6 sequence (Q8VCB1 1-673): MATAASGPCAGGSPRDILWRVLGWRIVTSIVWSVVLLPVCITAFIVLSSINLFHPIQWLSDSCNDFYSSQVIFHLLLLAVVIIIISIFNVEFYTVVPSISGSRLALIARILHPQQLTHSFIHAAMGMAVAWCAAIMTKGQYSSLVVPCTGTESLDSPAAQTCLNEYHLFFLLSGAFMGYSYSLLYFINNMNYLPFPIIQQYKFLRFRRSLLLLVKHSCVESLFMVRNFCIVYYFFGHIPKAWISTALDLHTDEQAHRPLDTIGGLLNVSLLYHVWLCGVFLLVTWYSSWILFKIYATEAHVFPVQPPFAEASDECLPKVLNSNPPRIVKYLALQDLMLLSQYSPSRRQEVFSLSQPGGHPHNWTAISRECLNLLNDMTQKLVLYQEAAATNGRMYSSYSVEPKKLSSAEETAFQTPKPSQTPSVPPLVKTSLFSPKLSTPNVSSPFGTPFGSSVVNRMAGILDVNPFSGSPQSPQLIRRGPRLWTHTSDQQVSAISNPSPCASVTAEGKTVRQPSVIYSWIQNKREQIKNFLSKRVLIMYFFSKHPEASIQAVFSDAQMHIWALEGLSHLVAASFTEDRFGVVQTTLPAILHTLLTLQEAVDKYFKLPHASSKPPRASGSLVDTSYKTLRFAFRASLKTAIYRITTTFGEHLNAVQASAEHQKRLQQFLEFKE

CCCCC/C=C\C/C=C\C/C=C\C/C=C\CCCC(=O)NCCO [AEA, anandamide, reference compound]
SILAC ratio Lrrc59 ([1]; competitor 200 μM): 1.6 | SILAC ratio, TIMM22 (Q9CQ85) ([2]; competitor 200 μM): 1.3 | SILAC ratio, Timm22 ([2]; competitor 200 μM): 1.3 | SILAC ratio Puf60 ([3]; competitor 200 μM): 1.3 | SILAC ratio P4ha1 ([4]; competitor 200 μM): 1.0 | SILAC ratio, EMD (O08579) ([5]; competitor 200 μM): 1.4 | SILAC ratio, Emd ([5]; competitor 200 μM): 1.4 | SILAC ratio, Kdelr2 ([6]; competitor 200 μM): 1.4 | SILAC ratio Atp1a1 ([7]; competitor 200 μM): 1.4 | SILAC ratio, TMEM48 (Q8VCB1) ([8]; competitor 200 μM): 1.9 | SILAC ratio, Tmem48 ([8]; competitor 200 μM): 1.9

O=C(/C=C/c1cccnc1)NCCCCC1CCN(C(=O)c2ccccc2)CC1 [FK-866, reference compound]
SILAC ratio Lrrc59 ([1]; competitor 25 μM): 1.2 | SILAC ratio, TIMM22 (Q9CQ85) ([2]; competitor 25 μM): 1.2 | SILAC ratio, Timm22 ([2]; competitor 25 μM): 1.2 | SILAC ratio Puf60 ([3]; competitor 25 μM): 1.3 | SILAC ratio P4ha1 ([4]; competitor 25 μM): 1.1 | SILAC ratio, EMD (O08579) ([5]; competitor 25 μM): 1.4 | SILAC ratio, Emd ([5]; competitor 25 μM): 1.4 | SILAC ratio, Kdelr2 ([6]; competitor 25 μM): 1.2 | SILAC ratio Atp1a1 ([7]; competitor 25 μM): 1.2 | SILAC ratio, TMEM48 (Q8VCB1) ([8]; competitor 25 μM): 1.2 | SILAC ratio, Tmem48 ([8]; competitor 25 μM): 1.2

CN1CCN(C(=O)c2c(-c3ccccc3)c3cc([N+](=O)[O-])ccc3n2C)CC1 [KML110, (1-Methyl-5-nitro-3-phenyl-1H-indol-2-yl)(4-methylpiperazin-1-yl)methanone]
SILAC ratio Lrrc59 ([1]; competitor 25 μM): 1.3 | SILAC ratio, Timm22 ([2]; competitor 25 μM): 1.4 | SILAC ratio Puf60 ([3]; competitor 25 μM): 1.3 | SILAC ratio, Emd ([5]; competitor 25 μM): 1.7 | SILAC ratio, Kdelr2 ([6]; competitor 25 μM): 1.3 | SILAC ratio Atp1a1 ([7]; competitor 25 μM): 1.2 | SILAC ratio, Tmem48 ([8]; competitor 25 μM): 1.6

CN1CCN(C(=O)c2[nH]c3ccc([N+](=O)[O-])cc3c2-c2ccccc2)CC1 [MJN228, (4-Methylpiperazin-1-yl)(5-nitro-3-phenyl-1H-indol-2-yl)methanone]
SILAC ratio Lrrc59 ([1]; competitor 10 μM): 1.3 | SILAC ratio Lrrc59 ([1]; competitor 25 μM): 1.5 | SILAC ratio Lrrc59 ([1]; competitor 50 μM): 1.5 | SILAC ratio Lrrc59 ([1]; competitor 100 μM): 2.0 | SILAC ratio, TIMM22 (Q9CQ85) ([2]; competitor 25 μM): 1.3 | SILAC ratio, Timm22 ([2]; competitor 10 μM): 1.0 | SILAC ratio, Timm22 ([2]; competitor 25 μM): 1.3 | SILAC ratio, Timm22 ([2]; competitor 50 μM): 1.0 | SILAC ratio, Timm22 ([2]; competitor 100 μM): 1.8 | SILAC ratio Puf60 ([3]; competitor 10 μM): 1.4 | SILAC ratio Puf60 ([3]; competitor 25 μM): 1.2 | SILAC ratio Puf60 ([3]; competitor 50 μM): 1.0 | SILAC ratio Puf60 ([3]; competitor 100 μM): 1.2 | SILAC ratio P4ha1 ([4]; competitor 10 μM): 1.3 | SILAC ratio, EMD (O08579) ([5]; competitor 25 μM): 2.4 | SILAC ratio, Emd ([5]; competitor 10 μM): 1.8 | SILAC ratio, Emd ([5]; competitor 25 μM): 2.4 | SILAC ratio, Emd ([5]; competitor 50 μM): 2.5 | SILAC ratio, Emd ([5]; competitor 100 μM): 4.5 | SILAC ratio, Kdelr2 ([6]; competitor 10 μM): 1.2 | SILAC ratio, Kdelr2 ([6]; competitor 25 μM): 1.2 | SILAC ratio, Kdelr2 ([6]; competitor 50 μM): 1.3 | SILAC ratio, Kdelr2 ([6]; competitor 100 μM): 1.8 | SILAC ratio Atp1a1 ([7]; competitor 10 μM): 1.4 | SILAC ratio Atp1a1 ([7]; competitor 25 μM): 1.4 | SILAC ratio Atp1a1 ([7]; competitor 50 μM): 1.1 | SILAC ratio Atp1a1 ([7]; competitor 100 μM): 1.2 | SILAC ratio, TMEM48 (Q8VCB1) ([8]; competitor 25 μM): 1.5 | SILAC ratio, Tmem48 ([8]; competitor 10 μM): 1.3 | SILAC ratio, Tmem48 ([8]; competitor 25 μM): 1.5 | SILAC ratio, Tmem48 ([8]; competitor 50 μM): 1.9 | SILAC ratio, Tmem48 ([8]; competitor 100 μM): 2.8

C=CCN(C)CCCCCCOc1ccc(C(=O)c2ccc(Br)cc2)c(F)c1 [Ro 48-8071, reference compound]
SILAC ratio Lrrc59 ([1]; competitor 25 μM): 1.2 | SILAC ratio, TIMM22 (Q9CQ85) ([2]; competitor 25 μM): 1.1 | SILAC ratio, Timm22 ([2]; competitor 25 μM): 1.1 | SILAC ratio Puf60 ([3]; competitor 25 μM): 1.0 | SILAC ratio P4ha1 ([4]; competitor 25 μM): 1.1 | SILAC ratio, EMD (O08579) ([5]; competitor 25 μM): 1.3 | SILAC ratio, Emd ([5]; competitor 25 μM): 1.3 | SILAC ratio, Kdelr2 ([6]; competitor 25 μM): 0.9 | SILAC ratio Atp1a1 ([7]; competitor 25 μM): 1.0 | SILAC ratio, TMEM48 (Q8VCB1) ([8]; competitor 25 μM): 1.1 | SILAC ratio, Tmem48 ([8]; competitor 25 μM): 1.1
